# Columns and labels:
# [1] = test system: human umbilical vein endothelial cells (HUVEC) and normal human dermal fibroblasts; experiment: Measurement of lumen formation (angiogenesis kit, CD31 immunostaining, lumen area); format: cell-based
# Protocol: The measurement of lumen formation was carried out in the following manner using commercially available angiogenesis kits (Kurabo), each including human umbilical vein endothelial cells (HUVEC) and normal human dermal fibroblasts. First, sample solutions were prepared by dissolving 2-Cl—C.OXT-A in physiological saline so as to achieve predetermined concentrations (1, 10, 100, 500 μmol/l, 1, 5, 10, 50 mmol/l). Then, the sample solutions containing 2-Cl—C.OXT-A at the predetermined concentrations respectively were added to media provided in the kits so that their concentrations became 10 v/v %. Thus, lumen formation media were prepared. The final concentrations of 2-Cl—C.OXT-A in the lumen formation media were 0.1, 1, 10, 50, 100, 500 μmol/l, 1 and 5 mmol/1.
# Using each of the lumen formation media, the human umbilical vein endothelial cells (HUVEC) and the normal human dermal fibroblasts were cultured for 10 days. After the culture, the human umbilical vein endothelial cells (HUVEC) were immunostained using a lumen staining kit (for CD31 staining, Kurabo). Then, using NIH Image (image processing and analysis software), the area of a portion stained by the immunostaining (lumen area) was measured. As a control, a medium provided in the kit was used instead of the lumen formation medium to carry out the culture, and the cells were immunostained and the lumen area was measured in the same manner as in the above. Then, using the following equation (II), the relative value of lumen area in the culture using each of the lumen formation media containing 2-Cl—C.OXT-A at the predetermined concentrations was calculated.
# In the present example, the relative value of lumen area was calculated in the same manner as in the lumen formation measurement in Example 1, except that the measurement was carried out with respect to four groups respectively using media Nos. 5 to 8 prepared by adding 2-Cl—C.OXT-A and PD98059 to media provided in the above-described angiogenesis kits (Kurabo) so that their concentrations became as shown in Table 2 below. In the group using the medium No. 7, the culture was conducted using the medium No. 7 from the first to third days of the culture and the medium No. 5 from the fourth to tenth days of the culture, and in the group using the medium No. 8, the culture was conducted using the medium No. 8 from the first to third days of the culture and the medium No. 6 from the fourth to tenth days of the culture.
# In the present example, the relative value of lumen area was calculated in the same manner as in the lumen formation measurement in Example 1, except that the measurement was carried out with respect to six groups respectively using media Nos. 15 to 20 prepared by adding 2-Cl—C.OXT-A, VEGF (positive control), and SU5416 to media provided in the above-described angiogenesis kit (Kurabo) so that their concentrations became as shown in Table 4 below. In the group using the medium No. 16, the culture was conducted using the medium No. 16 from the first to third days of the culture and the medium No. 15 from the fourth to tenth days of the culture; in the group using the medium No. 18, the culture was conducted using the medium No. 18 from the first to third days of the culture and the medium No. 17 from the fourth to tenth days of the culture; and in the group using the medium No. 20, the culture was conducted using the medium No. 20 from the first to third days of the culture and the medium No. 19 from the fourth to tenth days of the culture.
# [2] = test system: Human umbilical vein endothelial cells (HUVEC); experiment: Measurement of cell proliferation (Cell Counting Kit-8); format: cell-based; details: examined in the same manner as in Example 1
# Protocol: Sample solutions were prepared by dissolving 2-Cl—C.OXT-A in physiological saline so as to achieve predetermined concentrations (0.5, 1, 5, 10, 50, 100 mmol/l). Then, the sample solutions containing 2-Cl—C.OXT-A at the predetermined concentrations respectively were added to HuMedia-EB2 media (Kurabo) to which 2 v/v % inactivated fetal bovine serum (FBS) had been added so that their concentrations became 10 v/v %. Thus, cell proliferation media were prepared. The final concentrations of 2-Cl—C.OXT-A in the cell proliferation media were 50, 100, 500 μmol/l, 1, 5, and 10 mmol/1.
# Human umbilical vein endothelial cells (HUVEC) suspended in a HuMedia-EG2 medium (Kurabo) were inoculated into each of gelatin-coated wells of a 96-well plate at a density of 3×10^3 cells per well, and cultured for 24 hours. 24 hours after the start of the culture, the medium was removed, and 100 μl of the cell proliferation medium was added to each well. The cells were cultured for another 48 hours. After the completion of the culture, a color reaction was caused using a Cell Counting Kit-8 (Dojindo Laboratories). 2 hours after the start of the reaction, the absorbance at 450 nm was measured using a microplate reader. As a control, a HuMedia-EB2 medium (Kurabo) to which 2 v/v % inactivated fetal bovine serum (FBS) had been added was used instead of the cell proliferation medium to carry out the culture, and a color reaction was caused and the absorbance was measured in the same manner as in the above. Then, using the following equation (I), the relative absorbance in the culture using each of the cell proliferation media containing 2-Cl—C.OXT-A at the predetermined concentrations was calculated.
# [3] = test system: Human umbilical vein endothelial cells (HUVEC); experiment: Measurement of cell migration (CytoSelect 24-well Cell Migration Assay); format: cell-based; details: examined in the same manner as in Example 1
# Protocol: Measurement of cell migration was carried out in the following manner using CytoSelect 24-well Cell Migration Assay (CBA-100, Cell Biolabs) kits. First, sample solutions were prepared by dissolving 2-Cl—C.OXT-A in physiological saline so as to achieve predetermined concentrations (0.1, 0.5, 1 mmol/l). Then, the sample solutions containing 2-Cl—C.OXT-A at the predetermined concentrations respectively were added to HuMedia-EB2 media (Kurabo) to which 2 v/v % inactivated fetal bovine serum (FBS) had been added so that their concentrations became 10 v/v %. Thus, cell migration media were prepared. The final concentrations of 2-Cl—C.OXT-A in the cell migration media were 10, 50, and 100 μmol/l.
# Human umbilical vein endothelial cells (HUVEC) were suspended in a HuMedia-EB2 medium (Kurabo) to which 2 v/v % inactivated fetal bovine serum (FBS) had been added at a density of 0.5×10^6 cells/ml. Thus, a cell suspension was prepared. 300 μl of the cell suspension was added to an upper compartment (i.e., in an insert) of a polycarbonate membrane plate provided in the kit, and 500 μl of the cell migration medium was added to a lower compartment (i.e., in a well) of the plate. Then, the cells were cultured at 37° C. for 24 hours. After the completion of the culture, the membrane on the inner bottom face of the insert was wiped out with a cotton swab to remove the cells on the membrane. Then, cells having migrated to the rear face of the membrane (the membrane on the outer bottom face of the insert) were stained using a staining solution provided in the kit, and then photographed from below the insert. After the photographing, the dye was extracted with an extracting solution provided in the kit, and the absorbance at 560 nm was measured using a microplate reader. As a control, a HuMedia-EB2 medium (Kurabo) to which 2 v/v % inactivated fetal bovine serum (FBS) had been added was used instead of the cell migration medium to carry out the culture, and the cells were stained and the absorbance was measured in the same manner as in the above. Then, using the above equation (I), the relative absorbance in the culture using each of the cell migration media containing 2-Cl—C.OXT-A at the predetermined concentrations was calculated.
# ERK = ERK activation (phosphorylation) immunoblot in HUVEC; format: cell-based, human
# [4] = test system: rat adrenal medulla-derived cell line PC12; experiment: Differentiation of PC12 cells, morphological change (micrographs); format: cell-based; details: medium containing NGF (positive control); sixth day of culture
# Protocol: In the present example, using rat adrenal medulla-derived cell line PC12, which is neurocyte model cells, obtained from the RIKEN BioResource Center, the effect of 2-Cl—C.OXT-A of Example 1 on the differentiation of PC12 cells was examined.
# (§1) Three samples were prepared by adding additives shown in Table 5 below to PBS so as to achieve predetermined concentrations. Also, an evaluation medium was prepared by adding each sample or PBS to DMEM (no serum) so that its concentration became 10 v/v %. Furthermore, as a control medium, a medium containing only DMEM (no serum) was prepared. […] On the sixth day of the culture, the cells were photographed under a microscope, and the AChE activity was measured according to the Ellman's method (Ellman, G. L., et al., Biochem. Pharmacol., 7, pp. 88-95, (1961)). Specifically, the AChE activity was measured in the following manner. […] The sample solution, 75 μl of 10 mmol/l DTNB, and 3.0 ml of 0.1 mol/l phosphate buffer solution (pH 8.0) were added to a […] for absorbance measurement, and finally, 50 μl of 100 mmol/l acetylthiocholine was added to cause a reaction. The absorbance of the reaction solution at 412 nm was measured for 5 minutes from immediately after the addition of the ace tylthiocholine. From the thus-measured absorbances, the amount of increase in absorbance (C) per minute was determined. […]
# [5] = test system: rat adrenal medulla-derived cell line PC12; experiment: Differentiation of PC12 cells, AChE activity (Ellman's method); format: cell-based; details: NGF (positive control), sixth day of culture
# Protocol: as §1, with “prepared. The PC12 cells were suspended at a density of 5×10^4 cells/ml in DMEM to which 5 v/v % cow serum and 10 v/v % horse serum had been added. Thus, a cell suspension was prepared. 3 ml of the cell suspension was inoculated into a 6 petri dish.” for “prepared.”
molecule,measurement,setting,value
"CSc1nc(N)c2ncn(C3CC(CO)C3CO)c2n1 (stereo not drawn) [2-SMe—C.OXT-A, 6-amino-2-thiomethoxy-9-[trans-trans-2,3-bis (hydroxymethyl)cyclobutyl]purine]",lumen formation promoting-activity for vascular endothelial cells,[1]; examined in the same manner as in Example 1,exhibited
same,cell proliferation promoting-activity for vascular endothelial cells,[2],exhibited
same,cell migration promoting-activity for vascular endothelial cells,[3],exhibited
same,melting point,,209.4 to 211 °C
"Cc1cc(C)c(/C=C2\C(=O)Nc3ccccc32)[nH]1 [SU5416, reference compound]",lumen formation,"[1]; Example 9, medium No. 16: only SU5416 2.5 μmol/l, versus medium No. 15 (control)",decreased
same,lumen formation promotion by 2-Cl—C.OXT-A in the presence of SU5416,"[1]; Example 9, medium No. 18: 2-Cl—C.OXT-A 10 μmol/l + SU5416 2.5 μmol/l, lumen area increased, rate lower than medium No. 17",not inhibited
same,lumen area,"[1]; Example 9, medium No. 20: VEGF 10 ng/ml + SU5416 2.5 μmol/l",decreased
same,increase in pERK,"ERK; Example 8, medium No. 10: only SU5416 100 nmol/l",not observed
same,ERK activation by 2-Cl—C.OXT-A in the presence of SU5416,"ERK; Example 8, medium No. 12: 2-Cl—C.OXT-A 100 μmol/l + SU5416 100 nmol/l",not inhibited
same,increase in pERK by VEGF in the presence of SU5416,"ERK; Example 8, medium No. 14: VEGF 10 ng/ml + SU5416 100 nmol/l",suppressed
"NGF: nerve growth factor, positive control",morphological change of PC12 cells (axon extension),[4],cells from which linear axons extend were observed
same,AChE enzyme activity (relative value),[5],increased
VEGF,lumen area,"[1]; Example 9, medium No. 19: VEGF 10 ng/ml",increased
same,pERK,"ERK; Example 8, medium No. 13: VEGF 10 ng/ml",increased

# Source: US20110230659A1, “CYCLOBUTYL PURINE DERIVATIVE, ANGIOGENESIS PROMOTING AGENT, LUMEN FORMATION PROMOTING AGENT, NEUROCYTE GROWTH PROMOTING AGENT, AND DRUG” (NATIONAL UNIVERSITY CORPORATION KAGAWA UNIVERSITY, priority 2008, published 2011)
